Test results as given in ChEMBL document CHEMBL1147387, “A cytotoxic beta-carboline from the bryozoan Catenicella cribraria” (1993).

Assay: Cytotoxicity against human NCI60 cells
Assay type: functional

Question: For C=Cc1nccc2c1[nH]c1c(O)cccc12, which GI50 is on record?
Answer: Its GI50 is 1.8 µM.

Question: And the TGI?
Answer: Its TGI is 5.8 µM.

Question: And the CC50 (read-out: LC50 (the source's name))?
Answer: The CC50 was 19 µM.
